Data on 13 compounds can be found in ChEMBL document CHEMBL4732228, “The total synthesis of berberine and selected analogues, and their evaluation as amyloid beta aggregation inhibitors” (Eur J Med Chem, 2021).

Converted amounts (≈) assume the structure as drawn. The source made the active and inactive calls. The calls are words filed in the database; no cut-off is given here.

For orientation: inhibition means the relative decrease from the control value, in per cent. A word on the CC50: it is the concentration giving 50% cytotoxicity. As usually defined, the solubility (thermodynamic) is solubility found after equilibrating the solid with the medium.

Data set [1] concerns the target Amyloid-beta precursor protein (Homo sapiens) (UniProt P05067). Description: Inhibition of amyloid beta (1 to 42 ) (unknown origin) aggregation at 10 uM after 20 hrs by thioflavin-T fluorescence method relative to control.
Data set [2] is described as follows: Cytotoxicity against rat PC12 cells assessed as reduction in cell viability incubated for 24 hrs by WST-8 assay. The data set is classed as cell-based, PC-12. A general note: Tetrazolium dyes change colour on reduction, which living cells bring about.
Data set [3] in a line: Water solubility of the compound at 1 mg incubated for 12 hrs under shaking condition by UV-HPLC analysis. The data set is classed as physicochemical.
Data set [4] has as its target Amyloid-beta precursor protein (Homo sapiens) (UniProt P05067). Description: Inhibition of amyloid beta (1 to 42 ) (unknown origin) aggregation assessed as decrease in size of amyloid beta fibrils after 20 hrs by TEM analysis (reference value: 1 micrometer).
For data set [5] the target is unchanged. Put plainly: Inhibition of amyloid beta (1 to 42 ) (unknown origin) aggregation assessed as appearance of nano-rod like amyloid beta fragments after 20 hrs by CD spectroscopic method.
Data set [6] can be described thus: Ratio of compound solubility to curcumin solubility in water after 12 hrs by UV-HPLC analysis. The data set is classed as physicochemical. The note with it: buffer.
Data set [7] concerns the target Amyloid-beta precursor protein (Homo sapiens) (UniProt P05067). Description: Inhibition of amyloid beta (1 to 42 ) (unknown origin) aggregation assessed as decrease in diameter of aggregate after 20 hrs by dynamic light scattering analysis (reference value: 4.6 micrometer).

Chain of Amyloid-beta precursor protein (Homo sapiens) (P05067 whole entry, the tested form may be a part): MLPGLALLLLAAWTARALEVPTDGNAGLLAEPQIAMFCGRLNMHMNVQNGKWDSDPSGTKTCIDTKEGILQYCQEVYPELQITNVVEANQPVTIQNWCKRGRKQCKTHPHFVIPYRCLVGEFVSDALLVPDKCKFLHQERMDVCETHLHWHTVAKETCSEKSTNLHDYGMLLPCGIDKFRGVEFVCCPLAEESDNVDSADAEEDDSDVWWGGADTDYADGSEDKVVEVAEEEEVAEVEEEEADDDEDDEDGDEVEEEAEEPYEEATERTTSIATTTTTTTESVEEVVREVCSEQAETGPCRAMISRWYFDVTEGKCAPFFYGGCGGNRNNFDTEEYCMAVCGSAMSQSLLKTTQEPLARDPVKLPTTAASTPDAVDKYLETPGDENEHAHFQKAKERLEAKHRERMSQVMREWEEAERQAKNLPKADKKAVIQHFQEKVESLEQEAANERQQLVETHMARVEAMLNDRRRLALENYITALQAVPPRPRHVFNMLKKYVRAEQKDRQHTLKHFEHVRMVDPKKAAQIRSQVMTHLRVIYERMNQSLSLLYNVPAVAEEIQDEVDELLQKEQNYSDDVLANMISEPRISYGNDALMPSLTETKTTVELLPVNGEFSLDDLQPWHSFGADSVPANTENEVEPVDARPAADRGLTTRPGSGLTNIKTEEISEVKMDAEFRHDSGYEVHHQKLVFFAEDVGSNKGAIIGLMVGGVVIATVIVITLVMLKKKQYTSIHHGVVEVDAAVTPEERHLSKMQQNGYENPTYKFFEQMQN

For the compound `COc1c(O)ccc2cc3[n+](cc12)CCc1cc(O)c(O)cc1-3.[Cl-]`, the inhibition in data set [1] is 39%. In addition, the CC50 at 24 h in data set [2] came to 39 µM. In data set [3], this compound registered a solubility (thermodynamic) at 12 h of 1500 µM.

In the case of `COc1ccc2cc3n(c(=O)c2c1OC)CCc1cc2c(cc1-3)OCO2` [OXYBERBERINE], in data set [2], the CC50 at 24 h was 137 µM.

On to `COc1ccc2ccn(CCc3cc4c(cc3Br)OCO4)c(=O)c2c1OC`, for which the CC50 at 24 h in data set [2] is 132 µM. This compound also had a solubility (thermodynamic) at 12 h in data set [3] of 15 µM (≈ 6.48 µg/mL).

In data set [1], `COc1ccc2cc3[n+](cc2c1OC)CCc1cc(O)c(O)cc1-3.[Cl-]` returned an inhibition of 27%. In data set [2], the CC50 at 24 h is above 150 µM. This compound also came in with a thermodynamic solubility at 12 h in data set [3] of 2750 µM.

Take `O=C1C=C(c2ccc(O)c(O)c2)OC(c2cc(O)ccc2O)C1` (configuration not stated): the inhibition in data set [1] amounted to 100%. Also, in data set [2], the CC50 at 24 h stood at 114 µM. Moreover, in data set [3], the thermodynamic solubility at 12 h turned out to be 2340 µM (≈ 735 µg/mL).

For `Oc1cc2c(cc1O)-c1cc3ccc(O)c(O)c3c[n+]1CC2.[Cl-]`, in data set [1], the inhibition was 72%. In addition, the Activity in data set [4] is 50 nm. Further, the CC50 at 24 h in data set [2] came to 9.8 µM. In data set [3], this compound yielded a thermodynamic solubility at 12 h of 2450 µM. In data set [5], the inhibition entry is “Active”.

In the case of `COc1cc(/C=C/C(=O)CC(=O)/C=C/c2ccc(O)c(OC)c2)ccc1O` [CURCUMIN], in data set [2], the CC50 at 24 h worked out at 44 µM.

Regarding `COc1ccc2cc3[n+](cc2c1OC)CCc1cc2c(cc1-3)OCO2.[Cl-]` [BERBERINE CHLORIDE], the inhibition in data set [1] stood at 32%. In data set [2], the CC50 at 24 h is above 150 µM. Besides, in data set [3], the solubility (thermodynamic) at 12 h came out at 1780 µM. The Ratio in data set [6] was 9000.

For `COc1ccc2c(c1OC)CN1CCc3cc4c(cc3C1C2)OCO4` (configuration not stated) [TETRAHYDROBERBERINE], the CC50 at 24 h in data set [2] was above 150 µM. The compound also yielded a thermodynamic solubility at 12 h in data set [3] of 7 µM (≈ 2.38 µg/mL).

Take `CCOC(CNC(=O)c1cccc(OC)c1OC)OCC`: in data set [2], the CC50 at 24 h is above 150 µM. For the same compound, in data set [3], the solubility (thermodynamic) at 12 h stood at 26 µM (≈ 7.73 µg/mL).

For `COc1c(O)ccc2c1CN1CCc3cc(O)c(O)cc3C1C2` (configuration not stated), the inhibition in data set [1] amounted to 61%. Moreover, the CC50 at 24 h in data set [2] worked out at 91 µM. The same compound displayed a solubility (thermodynamic) at 12 h in data set [3] of 2370 µM (≈ 743 µg/mL).

On to `COc1ccc2cc[nH]c(=O)c2c1OC`, for which the CC50 at 24 h in data set [2] was found to be 129 µM. For the same compound, the solubility (thermodynamic) at 12 h in data set [3] was 5.2 µM (≈ 1.07 µg/mL).

In the case of `Oc1cc2c(cc1O)C1Cc3ccc(O)c(O)c3CN1CC2` (configuration not stated), in data set [1], the inhibition stood at 78%. In addition, the values for the Activity in data set [7] and in data set [4] were 1.3 nm and 50 nm, respectively. Moreover, in data set [2], the CC50 at 24 h stood at 114 µM. Also, the solubility (thermodynamic) at 12 h in data set [3] was above 3340 µM. Also, the inhibition result in data set [5] was “Active”.
